Measurements taken from patent US7825139B2, “Compounds and methods for selective inhibition of dipeptidyl peptidase-IV” (Forest Laboratories Holdings Limited (BM), priority 2005, dated 2010).

Tests used:
DPP-VIII = molecular target: T1, DPP-VIII (Homo sapiens, UniProt Q6V1X1); assay: DPP-VIII IC50 assay (Ala-Pro AMC), selectivity versus DPP-IV; assay type: biochemical; details: IC50 of DPP-VIII divided by IC50 for DPP-IV
T1 construct: The full length cDNAs for human DPP-VII, DPP-VIII, DPP-IX, and FAP were obtained from Open Biosystems; 6xHis (C); made in house
Excerpt: (§1) The term “selectivity ratio” refers to the IC50 value generated in a biochemical assay measuring inhibition of DPP-IV compared to the IC50 value generated in a biochemical assay measuring inhibition of another DPP family member (e.g. DPP-VII, DPP-VIII, DPP-IX or FAP) whereby the ratio is obtained by dividing the IC50 value of DPP-VII, DPP-VIII, DPP-IX or FAP by the IC50 value for DPP-IV.
(§2) Materials. S9 insect cells and Sf-900 II SFM media were from Invitrogen. Anti-FLAG M2 immunoaffinity gel was from Sigma. Gly-Pro-AMC, Lys-Pro AMC, and Ala-Pro AMC were from Enzyme Systems. IC50 calculations were performed by non-linear regression analysis using Prism software (GraphPad). Preparation of DPP-VII, DPP-VIII, DPP-IX, and FAP baculovirus constructs. The full length cDNAs for human DPP-VII, DPP-VIII, DPP-IX, and FAP were obtained from Open Biosystems. […] Baculovirus was prepared using the Bac-to-Bac Baculovirus Expression System (Invitrogen). The cDNAs in the final baculovirus constructs were sequence verified. Baculovirus expression. […] Infection with DPP-VII, DPP-VIII, DPP-IX, and FAP baculoviral constructs were all performed at an MOI of 4. The infected cells were grown for 48 hours and the cell pellets harvested and frozen until purification. DPP-VII was purified using anti-FLAG immunoaffinity gel according to the manufacturer's instructions. DPP-VIII, DPP-IX, and FAP were purified using a B-PER 6xHis Fusion Protein Column Purification Kit from Pierce. IC50 assay. Recombinant DPPs were diluted in reaction buffer to give fluorescence values of 5000-20000 counts in the “enzyme only wells” 20 min after addition of substrate at 27° C. Reaction buffers were 25 mM (2-(4-Morpholino)-Ethane Sulfonic Acid), pH 5.5 for DPP-VII, 25 mM Tris, pH 8, 1% Triton X-100, 100 mM NaCl for DPP-VIII, and 25 mM Tris pH 8 for DPP-1× and FAP. Test wells in a 96-well microtiter plate contained 88 μL of diluted DPP and 2.5 ul of titrated compound in 50 mM glycine, pH 2.6. “Enzyme only” wells contained 88 uL of diluted DPP and 2.5 ul of glycine buffer. “No enzyme” wells contained 88 uL of reaction buffer without DPP and 2.5 ul of glycine buffer. All assays were done in triplicate. The plate was incubated at 27° C. for 10 min and then cooled on ice for 10 min. Ten microliters of substrate diluted in reaction buffer (40 uM final concentration) without Triton or NaCl were then added to all wells followed by incubation at 27C for 20 min. Substrates were Lys-Pro AMC for DPP-VII, and Ala-Pro AMC for DPP-VIII, DPP-IX, and FAP. Fluorescence in each well was measured at settings of 380/460 nm.

FAP = molecular target: T2, FAP (Homo sapiens, UniProt Q12884); assay: FAP IC50 assay (Ala-Pro AMC), selectivity versus DPP-IV; assay type: biochemical; details: IC50 of FAP divided by IC50 for DPP-IV
T2 construct: The full length cDNAs for human DPP-VII, DPP-VIII, DPP-IX, and FAP were obtained from Open Biosystems; 6xHis (N); made in house
T2 sequence (Q12884 1-760): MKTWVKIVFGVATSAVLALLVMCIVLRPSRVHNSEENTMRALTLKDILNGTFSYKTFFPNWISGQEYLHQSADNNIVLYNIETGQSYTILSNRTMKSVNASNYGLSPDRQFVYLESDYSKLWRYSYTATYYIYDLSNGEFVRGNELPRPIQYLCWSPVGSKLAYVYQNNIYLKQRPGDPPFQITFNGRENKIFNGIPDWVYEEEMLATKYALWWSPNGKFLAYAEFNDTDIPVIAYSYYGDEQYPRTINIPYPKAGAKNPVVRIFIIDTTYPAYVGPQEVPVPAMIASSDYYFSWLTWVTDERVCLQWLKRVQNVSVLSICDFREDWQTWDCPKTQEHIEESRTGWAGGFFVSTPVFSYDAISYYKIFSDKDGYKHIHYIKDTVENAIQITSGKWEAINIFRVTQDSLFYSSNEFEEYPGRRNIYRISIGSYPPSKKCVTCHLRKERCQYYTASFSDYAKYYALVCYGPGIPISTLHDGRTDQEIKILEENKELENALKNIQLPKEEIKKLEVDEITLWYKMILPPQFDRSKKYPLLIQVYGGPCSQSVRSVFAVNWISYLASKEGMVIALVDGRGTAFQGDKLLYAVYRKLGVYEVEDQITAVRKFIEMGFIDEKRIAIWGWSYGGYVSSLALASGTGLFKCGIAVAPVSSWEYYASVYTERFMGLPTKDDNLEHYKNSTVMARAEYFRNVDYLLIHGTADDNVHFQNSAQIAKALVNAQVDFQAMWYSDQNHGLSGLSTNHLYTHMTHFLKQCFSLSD
Excerpt: as §1, §2

DPP-VII = molecular target: T3, DPP-VII (Homo sapiens, UniProt Q9UHL4); assay: DPP-VII IC50 assay (Lys-Pro AMC), selectivity versus DPP-IV; assay type: biochemical; details: IC50 of DPP-VII divided by IC50 for DPP-IV
T3 construct: The full length cDNAs for human DPP-VII, DPP-VIII, DPP-IX, and FAP were obtained from Open Biosystems; FLAG (N); made in house
Excerpt: as §1, §2

Zucker Obese Fatty rats = assay: Toxicity in rats, oral dosing; assay type: in vivo, rat; details: 1 mg/kg, 4-24 hrs post-dose, all Zucker Obese Fatty rats tested
Excerpt: Toxicity in Rats: The Zucker Diabetic Fatty (ZDF) rat model can be used to investigate the effects of the compounds of the invention on both the treatment and prevention of diabetes as rats of this sub-strain are initially pre-diabetic although they develop severe type 2 diabetes characterized by increased HbAl c levels over a period of 6 weeks. The same strain can be used to predict the clinical efficacy of other anti-diabetic drug types. For example, the model predicts the potency and limited clinical efficacy of thiazolidinedione insulin sensitizer compounds. The experimental protocol requires p.o. (oral gavage) administration of either vehicle or test article at indicated doses either QD or BID using a gastric feeding needle with a ball tip, without anesthesia, using hand restraint to adult rats which have been fasted overnight. Animals are monitored for clinical signs at 1, 2, 4 and 8 hour time intervals following the treatment regimen. Whole blood samples (to a maximum level of 10% of the total blood volume every 2 weeks) were collected from the animals from the retro-orbital sinus in accordance with the guidelines of the IACUC committee.
The expected therapeutic dose level could not be reached for the comparative compounds before acute toxicity was observed.

T1 sequence (Q6V1X1 whole entry): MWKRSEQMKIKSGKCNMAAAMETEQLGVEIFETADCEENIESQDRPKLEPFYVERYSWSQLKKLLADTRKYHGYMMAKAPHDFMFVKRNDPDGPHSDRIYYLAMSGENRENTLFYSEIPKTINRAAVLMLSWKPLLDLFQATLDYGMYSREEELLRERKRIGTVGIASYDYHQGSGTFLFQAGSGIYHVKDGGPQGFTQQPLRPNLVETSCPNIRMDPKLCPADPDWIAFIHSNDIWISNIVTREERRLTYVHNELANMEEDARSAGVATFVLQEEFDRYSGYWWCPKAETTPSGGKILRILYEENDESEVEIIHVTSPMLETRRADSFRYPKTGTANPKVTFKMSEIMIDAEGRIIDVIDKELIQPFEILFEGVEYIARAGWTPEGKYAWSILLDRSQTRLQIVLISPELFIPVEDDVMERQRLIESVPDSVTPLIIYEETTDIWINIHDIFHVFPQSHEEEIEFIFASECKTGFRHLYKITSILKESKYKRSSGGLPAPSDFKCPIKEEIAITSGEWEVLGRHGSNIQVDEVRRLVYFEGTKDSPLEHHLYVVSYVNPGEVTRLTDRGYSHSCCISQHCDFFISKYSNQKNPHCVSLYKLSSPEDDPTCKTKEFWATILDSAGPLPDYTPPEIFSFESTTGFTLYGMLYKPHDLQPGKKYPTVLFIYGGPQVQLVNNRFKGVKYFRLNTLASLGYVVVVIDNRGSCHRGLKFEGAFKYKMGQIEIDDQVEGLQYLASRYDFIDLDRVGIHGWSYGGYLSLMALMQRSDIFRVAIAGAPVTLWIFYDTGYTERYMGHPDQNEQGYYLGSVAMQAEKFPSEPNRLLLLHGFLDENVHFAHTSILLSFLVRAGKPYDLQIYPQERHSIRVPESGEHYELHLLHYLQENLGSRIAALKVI

| Compound | Selectivity Ratios DPP-VIII (DPP-VIII) | Selectivity Ratios FAP (FAP) | Selectivity Ratios DPP-VII (DPP-VII) | acute toxicity in rats (Zucker Obese Fatty rats) |
| --- | --- | --- | --- | --- |
| N[C@@H]1CCN(S(=O)(=O)c2cc(F)c(F)cc2F)C[C@H]1C(=O)N1CCC[C@H]1B(O)O [Compound 12, (2R)-1-[(3R,4R)-4-amino-1-(2,4,5-trifluoro-benzenesulfonyl)-piperidine-3-carbonyl]-boroPro-OH] | C (10 < C ≦ 50) | C (10 < C ≦ 50) | C (10 < C ≦ 50) | – |
| CC(C)[C@H](N)C(=O)N1CCC[C@H]1B(O)O [PT100] | – | – | – | acute toxicity (death) |
| CS(=O)(=O)c1ccc(S(=O)(=O)N2CC[C@@H](N)[C@H](C(=O)N3CCC[C@H]3B(O)O)C2)cc1 [Compound 13, (2R)-1-[(3R,4R)-4-amino-1-(4-methanesulfonyl-benzenesulfonyl)-piperidine-3-carbonyl]-boroPro-OH] | D (50 < D ≦ 100) | E (E > 100) | E (E > 100) | – |
| N[C@@H]1CN(S(=O)(=O)c2cccc3ccccc23)CC[C@H]1C(=O)N1CCC[C@H]1B(O)O [Compound 14, (2R)-1-[(3R,4R)-4-amino-1-(naphthalene-1-sulfonyl)-piperidine-3-carbonyl]-boroPro-OH] | C (10 < C ≦ 50) | C (10 < C ≦ 50) | C (10 < C ≦ 50) | – |
| Cl.O=C(CN[C@@H]1CCCNC1)N1CCC[C@H]1B(O)O [Compound 21, reference compound] | B (1 < B ≦ 10) | C (10 < C ≦ 50) | A (A ≦ 1) | – |
| N[C@@H]1CCN(S(=O)(=O)c2cccc(-c3ccccc3)c2)C[C@H]1C(=O)N1CCC[C@H]1B(O)O [Compound 17, (2R)-1-[(3R,4R)-4-amino-1-(biphenyl-3-sulfonyl)-piperidine-3-carbonyl]-boroPro-OH] | E (E > 100) | C (10 < C ≦ 50) | C (10 < C ≦ 50) | – |
| N[C@@H]1CCN(S(=O)(=O)c2ccc(-c3ccccc3)cc2)C[C@H]1C(=O)N1CCC[C@H]1B(O)O [Compound 16, (2R)-1-[(3R,4R)-4-amino-1-(biphenyl-4-sulfonyl)-piperidine-3-carbonyl]-boroPro-OH] | E (E > 100) | C (10 < C ≦ 50) | E (E > 100) | – |
| O=C(CNC1CCNCC1)N1CCC[C@H]1B(O)O [Compound 20, reference compound] | B (1 < B ≦ 10) | E (E > 100) | A (A ≦ 1) | – |
| N[C@@H]1CCN(S(=O)(=O)c2ccc(F)cc2F)C[C@H]1C(=O)N1CCC[C@H]1B(O)O [Compound 11, (2R)-1-[(3R,4R)-4-amino-1-(2,4-difluoro-benzenesulfonyl)-piperidine-3-carbonyl]-boroPro-OH] | D (50 < D ≦ 100) | E (E > 100) | E (E > 100) | – |

Continued, in another order:

| Selectivity Ratios DPP-VIII (DPP-VIII) | Selectivity Ratios FAP (FAP) | Selectivity Ratios DPP-VII (DPP-VII) | Compound | acute toxicity in rats (Zucker Obese Fatty rats) |
| --- | --- | --- | --- | --- |
| C (10 < C ≦ 50) | D (50 < D ≦ 100) | E (E > 100) | N[C@@H]1CCN(S(=O)(=O)c2ccccc2F)C[C@H]1C(=O)N1CCC[C@H]1B(O)O [Compound 10, (2R)-1-[(3R,4R)-4-amino-1-(2-fluoro-benzenesulfonyl)-piperidine-3-carbonyl]-boroPro-OH] | – |
| C (10 < C ≦ 50) | E (E > 100) | E (E > 100) | CS(=O)(=O)N1CC[C@@H](N)[C@H](C(=O)N2CCC[C@H]2B(O)O)C1 [Compound 7, (2R)-1-[(3R,4R)-4-amino-1-methanesulfonyl-piperidine-3-carbonyl]-boroPro-OH] | – |
| D (50 < D ≦ 100) | E (E > 100) | E (E > 100) | N[C@@H]1CCN(S(=O)(=O)c2ccccc2)C[C@H]1C(=O)N1CCC[C@H]1B(O)O [Compound 6, (2R)-1-[(3R,4R)-4-amino-1-Benzenesulfonyl-piperidine-3-carbonyl]-boroPro-OH] | – |
| D (50 < D ≦ 100) | D (50 < D ≦ 100) | E (E > 100) | N[C@@H]1CCN(S(=O)(=O)c2cccc(F)c2)C[C@H]1C(=O)N1CCC[C@H]1B(O)O [Compound 9, (2R)-1-[(3R,4R)-4-amino-1-(3-fluoro-benzenesulfonyl)-piperidine-3-carbonyl]-boroPro-OH] | – |
| D (50 < D ≦ 100) | D (50 < D ≦ 100) | E (E > 100) | N[C@@H]1CCN(S(=O)(=O)c2ccc(F)cc2)C[C@H]1C(=O)N1CCC[C@H]1B(O)O [Compound 8, (2R)-1-[(3R,4R)-4-amino-1-(4-fluoro-benzenesulfonyl)-piperidine-3-carbonyl]-boroPro-OH] | – |
| C (10 < C ≦ 50) | D (50 < D ≦ 100) | C (10 < C ≦ 50) | CC(C)S(=O)(=O)N1CC[C@@H](N)[C@H](C(=O)N2CCC[C@H]2B(O)O)C1 [Compound 18, (2R)-1-[(3R,4R)-4-amino-1-(propane-2-sulfonyl)-piperidine-3-carbonyl]-boroPro-OH] | – |
